In this data set the test system is Caco-2 monolayer A->B permeability, LC-MS/MS, 90 min. The data set can be described thus: Inhibitors of Human alpha-Glucosidase: Caco-2 Cell Permeability Profiling. As to conditions: active compounds read high. The source says: Alpha-glucosidase is responsible for the hydrolysis of terminal, non-reducing 1,4-linked alpha-D-glucose residues, which releases alpha-D-glucose. It is a lysosomal hydrolase that is required for the degradation of a small percentage (1-3%) of cellular glycogen in humans. Deficiency of this enzyme results in glycogen-storage disease type II (GSDII), also referred to as Pompe disease, an autosomal recessive disorder. Structurally normal glycogen is accumulated in the lysosomes and cytoplasm in affected patients, primarily in muscle tissues. Excessive glycogen storage within lysosomes may interrupt normal functioning of other organelles and leads to cellular injury. In turn, this leads to enlargement and dysfunction of the entire organ involved (eg: cardiomyopathy and muscle weakness). This bioassays provides profiling data on Caco-2 cell permeability of leads compounds developed for the alpha-Glucosidase project. This in vitro model is often predictive of in vivo absorption of the compound across the intestinal lining by using a Caco2-cell line and measuring the compound's rate of transport […]. NIH Chemical Genomics Center [NCGC] NIH Molecular Libraries Probe Production Centers Network [MLPCN] […]
1. […] The T0, LY and T90, LY plates are read by FlexStation 3 at excitation of 485 nm and emission of 535 nm to determine LY permeability. […]
In general terms: Caco-2 cells form a polarised layer with tight junctions and transporters.

Regarding `CC(=O)c1ccc(N2CCN(S(=O)(=O)c3ccc4c(c3)CC(=O)N4)CC2)cc1`, the Papp A->B was 21.3 10^-6 cm/s.

The values are drawn from PubChem BioAssay AID504686 (National Center for Advancing Translational Sciences (NCATS), 2011).
